Assay results reported in publication PMC6828666, “Discovery of holoenzyme-disrupting chemicals as substrate-selective CK2 inhibitors” (Scientific Reports, 2019).

Experiments:
CK2α2β2 holoenzyme = target: T1, CK2α2β2 holoenzyme (Homo sapiens, UniProt P68400); experiment: Olig2 phosphorylation assay (CK2β-dependent protein substrate); format: biochemical; conditions: 50 μM compound; GST-Olig-2, CK2α, increasing CK2β
T1 construct: made in house; host or cells: Escherichia coli (CK2α)
Experimental: For Olig2 phosphorylation assay, GST-Olig2 fusion protein (3.7 μg) was incubated with 200 nM CK2α, in the absence or presence of 50 μM compound 1 and increasing concentrations of CK2β. Samples were analyzed by SDS PAGE and subjected to autoradiography. Phosphoproteins were quantified by densitometry scanning. For eIF2 peptide phosphorylation assay, the CK2β-dependent peptide substrate (600 μM) was incubated with CK2α (40–50 nM) and increasing concentrations of compound 1 or/and CK2β.
Fig. S3. Compound 1 inhibits CK2β-dependent phosphorylation of Olig2 transcription factor and CK2β-dependent autophosphorylation. (a) CK2α (200 nM) was incubated with increasing concentrations of CK2β in the absence or presence of compound 1 (50 μM) followed by the addition of GST-Olig2 (3.7 μg), [γ^32P]-ATP (100 μM, 1 μCi) and MgCl2 (10 mM). Samples were analyzed by SDS PAGE and subjected to autoradiography. Left and right parts of the image are from the same gel (see Supplementary Fig. S16). (b) ^32P incorporated into GST-Olig2 was determined by densitometry scanning and is expressed as arbitrary units; (c) CK2β (300 nM) was incubated with increasing concentrations of compound 1, 10 μM [γ^32P] […] Phosphorylated proteins were separated by SDS/PAGE and analyzed by autoradiography (c) or Coomassie Blue staining (d); ^32P incorporation into CK2β was quantified and expressed as arbitrary units (e). […]

CK2 holoenzyme = target: T2, CK2 holoenzyme (Homo sapiens, UniProt P68400); experiment: Autophosphorylation of CK2β by CK2 holoenzyme; format: biochemical; conditions: increasing concentrations of compound
T2 construct: made in house; host or cells: Escherichia coli (CK2α)
T2 sequence (P68400 whole entry): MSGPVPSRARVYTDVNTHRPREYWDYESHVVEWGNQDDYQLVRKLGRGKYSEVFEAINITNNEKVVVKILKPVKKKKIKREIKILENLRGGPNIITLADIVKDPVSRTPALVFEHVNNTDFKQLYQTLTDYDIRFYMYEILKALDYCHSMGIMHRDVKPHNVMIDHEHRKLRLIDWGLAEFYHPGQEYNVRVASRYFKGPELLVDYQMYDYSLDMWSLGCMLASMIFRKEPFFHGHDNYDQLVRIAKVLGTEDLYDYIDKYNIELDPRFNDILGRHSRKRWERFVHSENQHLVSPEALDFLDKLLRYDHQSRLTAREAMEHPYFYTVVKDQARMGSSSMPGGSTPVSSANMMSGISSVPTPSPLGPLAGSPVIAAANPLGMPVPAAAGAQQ
Experimental: Fig. S3. Compound 1 inhibits CK2β-dependent phosphorylation of Olig2 transcription factor and CK2β-dependent autophosphorylation. (a) CK2α (200 nM) was incubated with increasing concentrations of CK2β in the absence or presence of compound 1 (50 μM) followed by the addition of GST-Olig2 (3.7 μg), [γ^32P]-ATP (100 μM, 1 μCi) and MgCl2 (10 mM). Samples were analyzed by SDS PAGE and subjected to autoradiography. Left and right parts of the image are from the same gel (see Supplementary Fig. S16). (b) ^32P incorporated into GST-Olig2 was determined by densitometry scanning and is expressed as arbitrary units; (c) CK2β (300 nM) was incubated with increasing concentrations of compound 1, 10 μM [γ^32P] ATP and 10 mM MgCl2. Autophosphorylation was initiated by the addition of 300 nM CK2α. Phosphorylated proteins were separated by SDS/PAGE and analyzed by autoradiography (c) or Coomassie Blue staining (d); ^32P incorporation into CK2β was quantified and expressed as arbitrary units (e). Uncropped blots are shown in Supplementary Fig. S16.

[1] = target: T3, CK2 subunit association in MCF10A cells (Homo sapiens, UniProt P68400); experiment: Anti-CK2β immunoprecipitation from treated MCF10A cells; format: cell-based; conditions: 75 μM, 4 h; CK2β-dependent and CK2β-independent substrate; vs DMSO
T3 construct: endogenous in cells; host or cells: MCF10A
T3 sequence (P68400 whole entry): as above
Experimental: The transient nature of the CK2 holoenzyme has been highlighted by the elucidation of its structure. Furthermore, analysis of the spatiotemporal organization of individual CK2 subunits in living cells has shown that they are highly dynamic[10],[12]. Thus, we evaluated the effect of 6 on the CK2 subunit association in human mammary epithelial cells, using two independent strategies. First, CK2β was immunoprecipitated from extracts of MCF10A cells treated with DMSO as control or 75 μM of 6, and the amount of CK2α or CK2 catalytic activity recovered in the immunoprecipitates were analyzed by western blot and CK2 activity assay.
Anti-CK2β immunoprecipitates were prepared from MCF10A cells incubated with DMSO (0.5%) or 75 μM 6 for 4 h. The corresponding immunoprecipitates were analyzed for the presence of CK2 subunits by Western blot (a) and quantified in (b) or for CK2 activity with CK2β-independent and CK2β-dependent peptide substrate (c). […] (d) In situ proximity ligation images of MCF10A cells incubated with 50 μM 6 for 3 h. (e) Number of fluorescent dots per cell was quantified using the BlobFinder software. n = 120 cells from two independent experiments. Mann Whitney test was used and results were found significant (*p-value = 0.0003 and **p-value = 0.044). TEXT PRINTED IN THE PICTURE: (a) 6: Ratio CK2α/CK2β relative to control: 0.77 (75 μM)

[2] = tested on: PARP cleavage in MCF10A cells; experiment: Western blot of PARP cleavage; format: cell-based, human; conditions: 24 h, 25 μM 6 or 30 μM TAT-Pc
Experimental: (§1) Figure 5 Cellular effects of compounds 3, 4 and 6. MCF10A cells were incubated for 24 h with either DMSO or 30 μM TAT or 30 μM TAT-Pc or 25 μM 6 (a) or with increasing concentrations of 6 (b) or 3 (c). MCF10A cells were incubated for 48 h with either DMSO or with increasing concentrations of 3 or 6 (d). Cells were then lysed and analyzed by western blot with the indicated antibodies. Blot images are representative of at least three independent experiments. Uncropped blots are shown in Supplementary Fig. S16. (e) MDA-MB231 cells were treated with 40 μM 6 (⚬), 4 (▴) or 3 (X). (f) MDA-MB231 cells were treated for 30 h with increasing concentrations of 6 (⚬) or 4 (▴). Insert: cells were treated for 30 h with 80 μM 6 or 10 μM CX-4945. […] Cell death was automatically quantified from images captured every 3 h for the duration of the experiments using an Essen IncuCyte Zoom live-cell microscopy incubator. […]
(§2) Cells were lysed in RIPA buffer (10 mM Tris-HCl pH 7.4, 150 mM NaCl, 1% Triton X-100, 0.1% SDS, 0.5% DOC and 1 mM EDTA) containing both protease- and phosphatase-inhibitor cocktails (Sigma-Aldrich; P8340, P2850, P5726). Cell homogenates were quantified using BCA protein Assay kit (Thermo Scientific). […] Luminata Forte Western HRP substrate (Millipore) was added and membranes were read with Fusion Fx7 (PerkinElmer). […] Images were analyzed and band intensities were quantified using ImageJ software. […]

[3] = tested on: survivin expression in MCF10A cells; experiment: Western blot of survivin expression; format: cell-based, human; conditions: 24 h, 25 μM 6 or 30 μM TAT-Pc
Experimental: as §1, §2

T1 sequence (P68400 whole entry): as above

Compound	decrease in Olig-2 phosphorylation (CK2α2β2 holoenzyme)	autophosphorylation of CK2β (CK2 holoenzyme)	CK2 activity in anti-CK2β precipitates [1]	PARP cleavage [2]	survivin expression [3]
COc1[nH]c2ccc(F)cc2c1C(=O)OCC1CCN(CCNS(C)(=O)=O)CC1 [Compound 1]	~ 50%	dose-dependent decrease			
COc1[nH]c2ccc(F)cc2c1C(=O)OCC1CCN(CCNS(=O)(=O)c2ccccc2)CC1.Cl [Compound 6]			significantly lower	No significant PARP cleavage	decreased
